According to patent US9427468B2, “Compositions and methods for diagnosing and treating community-acquired methicillin-resistant Staphylococcus aureus” (priority 2007, dated 2016):
≈ marks a conversion by molar mass, not a printed value.

Legend:
[1] = tested on: COL wild-type; test: MIC by microdilution (CLSI); format: cell-based, Staphylococcus aureus; conditions: Staphylococcus aureus, read-out: MICs
Excerpt: (§1) The present invention was described based on a series of experiments examining the biological basis for CA-MRSA strains versus HA-MRSA strains, focusing on the role of PBPs in CA-MRSA and generally in β-lactam resistance. Experiments were first performed using mutants of various PBPs. In-frame deletion mutants of the genes encoding PBP3 (MW1504) and PBP4 (MW0604), pbp3 and pbp4 respectively, were generated in the CA-MRSA strain MW2 and in HA-MRSA strain COL using the temperature-sensitive allelic replacement vector pMAD (Arnaud, M. et al. 2004. Appl. Environ. Microbiol. 70:6887-6891). PBP4 was also deleted in the HA-MRSA strains Mu50 and N315 and in the CA-MRSA strain USA300. […] Minimum inhibitory concentrations (MICs) were determined according to the Clinical and Laboratory Standards Institute and are a standard method for defining antibiotic efficacy against different organisms. Bacteria, grown to an OD650=1, were added to cation-supplemented Mueller Hinton broth (CSMHB) to achieve a final concentration of 5×10^5 CFU/ml.
(§2) Although PBP4, similar to PBP2A, binds with low affinity to many β-lactams, PBP4 binds cefoxitin, a semi-synthetic β-lactam derived from cephamycin C, with high affinity (Nair, S. R. and C. E. Cherubin. 1978. Antimicrob. Agents Chemother. 14:866-875).
(§3) Minimum inhibitory concentrations and minimum bactericidal concentrations (MIC and MBC, respectively) were determined for each isolate in triplicate by microdilution techniques with an inoculum of 5×10^5 CFU/ml according to the Clinical and Laboratory Standards Institute guidelines. Aliquots (5 μl) from clear wells were plated onto TSA drug-free plates for the determination of MBCs, followed by incubation at 37° C. for 24 and 48 hours. For the mutant strains, each one of the three clones was tested. MIC data were reported as median values from at least three independent experiments for each antibiotic. Also, strains containing pEPSA5-based plasmids were tested with and without xylose induction, but chloramphenicol was not added to avoid interference with beta-lactam resistance evaluation. […] The correct inocula were confirmed by plating serial dilutions on agar.

[2] = tested on: MW2 (USA400) wild-type; test: MIC by microdilution (CLSI); format: cell-based, Staphylococcus aureus; conditions: Staphylococcus aureus, USA400, read-out: MICs
Excerpt: as §1, §2, §3

[3] = tested on: USA300 wild-type; test: MIC by microdilution (CLSI); format: cell-based, Staphylococcus aureus; conditions: Staphylococcus aureus, USA300, read-out: MICs
Excerpt: as §1, §2, §3

[4] = tested on: MW2 ex Δpbp4; test: MIC by microdilution (CLSI); format: cell-based, Staphylococcus aureus; conditions: Staphylococcus aureus, read-out: MICs
Excerpt: as §1, §3

[5] = tested on: MW2 Δpbp3/4; test: MIC by microdilution (CLSI); format: cell-based, Staphylococcus aureus; conditions: Staphylococcus aureus, read-out: MICs
Excerpt: as §1, §3

[6] = tested on: MW2 Δpbp3; test: MIC by microdilution (CLSI); format: cell-based, Staphylococcus aureus; conditions: Staphylococcus aureus, read-out: MICs
Excerpt: as §1, §3

[7] = tested on: MW2 Δpbp4::pbp4; test: MIC by microdilution (CLSI); format: cell-based, Staphylococcus aureus; conditions: Staphylococcus aureus, read-out: MICs
Excerpt: as §1, §3

[8] = tested on: MW2 Δpbp4; test: MIC by microdilution (CLSI); format: cell-based, Staphylococcus aureus
Excerpt: as §1, §3

[9] = tested on: N315 wild-type; test: MIC by microdilution (CLSI); format: cell-based, Staphylococcus aureus; conditions: Staphylococcus aureus, read-out: MICs
Excerpt: as §1, §3

[10] = tested on: USA300 Δpbp4; test: MIC by microdilution (CLSI); format: cell-based, Staphylococcus aureus
Excerpt: as §1, §3

[11] = tested on: MW2 ex (MW2 cured of plasmid pMW2); test: MIC by microdilution (CLSI); format: cell-based; conditions: Staphylococcus aureus, Table 1
Excerpt: as §1, with “Experiments” for “The present invention was described based on a series of experiments examining the biological basis for CA-MRSA strains versus HA-MRSA strains, focusing on the role of PBPs in CA-MRSA and generally in β-lactam resistance. Experiments”
as §3

[12] = tested on: MW2 ex Δpbp3; test: MIC by microdilution (CLSI); format: cell-based; conditions: Staphylococcus aureus, read-out: MICs
Excerpt: as §1, with “Experiments” for “The present invention was described based on a series of experiments examining the biological basis for CA-MRSA strains versus HA-MRSA strains, focusing on the role of PBPs in CA-MRSA and generally in β-lactam resistance. Experiments”
as §3

[13] = tested on: MW2 ex Δpbp3/4; test: MIC by microdilution (CLSI); format: cell-based, Staphylococcus aureus; conditions: Staphylococcus aureus, read-out: MICs
Excerpt: as §1, with “Experiments” for “The present invention was described based on a series of experiments examining the biological basis for CA-MRSA strains versus HA-MRSA strains, focusing on the role of PBPs in CA-MRSA and generally in β-lactam resistance. Experiments”
as §3

[14] = tested on: Mu50 wild-type; test: MIC by microdilution (CLSI); format: cell-based, Staphylococcus aureus; conditions: Staphylococcus aureus, read-out: MICs
Excerpt: as §1, with “Experiments” for “The present invention was described based on a series of experiments examining the biological basis for CA-MRSA strains versus HA-MRSA strains, focusing on the role of PBPs in CA-MRSA and generally in β-lactam resistance. Experiments”
as §3

[15] = tested on: CA- and HA-MRSA strains; test: Synergy assay, cefuroxime with two-fold dilutions of oxacillin; format: cell-based, Staphylococcus aureus; conditions: in combination with two-fold dilutions of oxacillin
Description: as §3

[16] = tested on: PBP4; conditions: cited from earlier work

CCOc1ccc2ccccc2c1C(=O)N[C@@H]1C(=O)N2[C@@H]1SC(C)(C)[C@@H]2C(=O)O [NF, nafcillin]
MIC [1]: 64 µg/mL (≈ 154 µM)
MIC [2]: 16 µg/mL (≈ 38.6 µM)
MIC [3]: 16 µg/mL (≈ 38.6 µM)
MIC [4]: 1 µg/mL (≈ 2.41 µM)
MIC [5]: 1 µg/mL (≈ 2.41 µM)
MIC [6]: 16 µg/mL (≈ 38.6 µM)
MIC [7]: 16 µg/mL (≈ 38.6 µM)
MIC ([8]; Staphylococcus aureus, read-out: MICs): 1 µg/mL (≈ 2.41 µM)
reduction in MIC on loss of pbp4 ([8]; {}): 16 fold
MIC [9]: 64 µg/mL (≈ 154 µM)
MIC ([10]; Staphylococcus aureus, USA300, read-out: MICs): 1 µg/mL (≈ 2.41 µM)
reduction in MIC on loss of pbp4 ([10]; {}): 16 fold
MIC [11]: 16 µg/mL (≈ 38.6 µM)
MIC [12]: 16 µg/mL (≈ 38.6 µM)
MIC [13]: 1 µg/mL (≈ 2.41 µM)
MIC [14]: 256 µg/mL (≈ 618 µM)

CO/N=C(\C(=O)N[C@@H]1C(=O)N2C(C(=O)O)=C(COC(N)=O)CS[C@H]12)c1ccco1 [Cefuroxime, cefuroxime]
effect on oxacillin MICs [15]: no effect whatsoever
affinity for PBP4 [16]: very low affinity

CN(C)CCn1nnnc1SCC1=C(C(=O)O)N2C(=O)[C@@H](NC(=O)Cc3csc(N)n3)[C@H]2SC1 [cefotiam]
affinity for PBP4 [16]: no affinity
